Assay results reported in ChEMBL document CHEMBL1135199, “Structure-activity relationships of non-imidazole H(3) receptor ligands. Part 2: binding preference for D-amino acids motifs” (Bioorg Med Chem Lett, 2002).

Columns and labels:
[1] = target: Histamine H1 receptor (Homo sapiens, UniProt P35367); assay: Binding affinity towards Histamine H1 receptor of human membranes.
[2] = target: Histamine H3 receptor (Rattus norvegicus, UniProt Q9QYN8); assay: Binding affinity towards Histamine H3 receptor of rat cortical membranes.
Histamine H3 receptor (Rattus norvegicus, UniProt Q9QYN8), sequence (Q9QYN8 whole entry): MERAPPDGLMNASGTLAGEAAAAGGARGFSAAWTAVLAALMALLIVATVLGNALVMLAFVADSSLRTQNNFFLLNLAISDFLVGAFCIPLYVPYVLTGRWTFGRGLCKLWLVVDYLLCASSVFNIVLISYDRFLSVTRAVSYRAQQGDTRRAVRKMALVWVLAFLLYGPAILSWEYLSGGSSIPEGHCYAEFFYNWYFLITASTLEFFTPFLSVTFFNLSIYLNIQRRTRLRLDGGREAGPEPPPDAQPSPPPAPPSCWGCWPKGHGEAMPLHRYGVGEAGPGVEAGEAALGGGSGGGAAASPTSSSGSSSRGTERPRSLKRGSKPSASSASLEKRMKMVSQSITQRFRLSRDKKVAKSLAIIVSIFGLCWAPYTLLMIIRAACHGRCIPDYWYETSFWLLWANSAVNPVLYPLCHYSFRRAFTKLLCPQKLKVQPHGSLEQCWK

[3] = target: Histamine H2 receptor (Homo sapiens, UniProt P25021); assay: Binding affinity towards Histamine H2 receptor from human membranes
Histamine H2 receptor, sequence (P25021 whole entry): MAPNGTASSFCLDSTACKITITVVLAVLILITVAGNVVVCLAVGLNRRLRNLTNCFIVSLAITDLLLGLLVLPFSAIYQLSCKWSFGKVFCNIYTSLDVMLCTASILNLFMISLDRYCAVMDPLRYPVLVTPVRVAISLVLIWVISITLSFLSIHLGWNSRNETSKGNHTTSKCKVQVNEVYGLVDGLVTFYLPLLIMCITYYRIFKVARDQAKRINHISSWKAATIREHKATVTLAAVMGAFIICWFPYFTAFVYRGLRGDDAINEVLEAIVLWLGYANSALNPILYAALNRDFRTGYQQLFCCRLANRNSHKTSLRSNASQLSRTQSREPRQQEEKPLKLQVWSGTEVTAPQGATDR

[4] = Oral bioavailability in rat (dose 5 mg/kg p.o.); assay type: ADME, organism-based; conditions: in vivo
[5] = target: Histamine H3 receptor (Rattus norvegicus) (UniProt Q9QYN8); assay: In vitro histamine H3 receptor antagonist activity was determined by K+-evoked depolarization- induced release of [3H]histamine from rat synaptosomes; assay type: functional, subcellular; conditions: Brain
Histamine H3 receptor (Rattus norvegicus), sequence (Q9QYN8 whole entry): as the sequence (Q9QYN8 whole entry) above

[6] = target: Histamine H3 receptor (Cavia porcellus, UniProt Q9JI35); assay: Tested in vitro for histamine H3 receptor mediate inhibition of neurogenic contractions in guinea pig isolated ileum assay; assay type: functional, tissue-based; conditions: read-out: pA2 (converted)
Histamine H3 receptor (Cavia porcellus, UniProt Q9JI35), sequence (Q9JI35 whole entry): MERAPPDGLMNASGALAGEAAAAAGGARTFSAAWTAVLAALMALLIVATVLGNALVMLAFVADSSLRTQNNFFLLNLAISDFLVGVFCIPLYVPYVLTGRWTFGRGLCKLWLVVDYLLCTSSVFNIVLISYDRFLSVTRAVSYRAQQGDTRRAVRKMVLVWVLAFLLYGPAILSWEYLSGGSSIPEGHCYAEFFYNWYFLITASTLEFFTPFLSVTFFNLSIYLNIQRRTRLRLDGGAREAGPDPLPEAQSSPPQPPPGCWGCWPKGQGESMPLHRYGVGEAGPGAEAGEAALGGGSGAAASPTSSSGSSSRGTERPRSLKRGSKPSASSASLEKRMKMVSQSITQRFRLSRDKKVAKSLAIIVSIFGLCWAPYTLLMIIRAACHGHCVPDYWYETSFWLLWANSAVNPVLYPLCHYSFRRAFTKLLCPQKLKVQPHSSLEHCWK

Histamine H1 receptor, sequence (P35367 whole entry): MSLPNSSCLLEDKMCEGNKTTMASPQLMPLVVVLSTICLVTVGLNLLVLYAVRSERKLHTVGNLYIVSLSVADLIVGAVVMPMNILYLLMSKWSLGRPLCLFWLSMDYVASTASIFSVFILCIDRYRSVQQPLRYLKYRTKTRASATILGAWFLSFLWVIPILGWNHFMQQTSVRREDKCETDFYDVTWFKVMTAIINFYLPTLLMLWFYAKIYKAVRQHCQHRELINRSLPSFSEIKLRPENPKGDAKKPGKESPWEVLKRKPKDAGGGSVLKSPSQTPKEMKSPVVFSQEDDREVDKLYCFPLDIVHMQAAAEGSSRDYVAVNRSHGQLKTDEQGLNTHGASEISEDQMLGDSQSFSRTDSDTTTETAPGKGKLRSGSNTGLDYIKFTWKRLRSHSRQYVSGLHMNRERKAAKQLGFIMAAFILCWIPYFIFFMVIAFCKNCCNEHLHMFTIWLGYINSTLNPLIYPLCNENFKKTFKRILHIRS

Structure (SMILES)	Ki [1]	Ki [2]	Ki [3]	bioavailability [4]	pKb [5]	Kb [6]
N[C@@H](C(=O)N1CCN(CCCOc2ccc(C(=O)C3CC3)cc2)CC1)c1ccccc1	4.57 µM	0.0275 µM	24.5 µM			
CCCCCC(=O)c1ccc(OCCCN2CCN(C(=O)[C@H](CC(C)C)NC(=O)OC(C)(C)C)CC2)cc1	8.13 µM	0.112 µM	3.47 µM			
O=C(c1ccc(OCCCN2CCN(C(=O)[C@H]3CCN3)CC2)cc1)C1CC1	12.6 µM	0.00132 µM	14.1 µM			
CC[C@H](N)C(=O)N1CCN(CCCOc2ccc(C(=O)C3CC3)cc2)CC1	4.68 µM	0.00251 µM	10.7 µM			
CN[C@@H](C(=O)N1CCN(CCCOc2ccc(C(=O)C3CC3)cc2)CC1)C(C)C	34.7 µM	0.0759 µM	49 µM			
CCCCCC(=O)c1ccc(OCCCN2CCN(C(=O)OCC)CC2)cc1				0%		
C[C@@H](CN)C(=O)N1CCN(CCCOc2ccc(C(=O)C3CC3)cc2)CC1	1.51 µM	0.00646 µM	10.2 µM			
O=C1C[C@@H](N2CCN(CCCOc3ccc(C(=O)C4CC4)cc3)CC2)N1	10 µM	0.00437 µM	10 µM			
N[C@H](Cc1cccc2ccccc12)C(=O)N1CCN(CCCOc2ccc(C(=O)C3CC3)cc2)CC1	2 µM	0.214 µM	20.9 µM			
CCCCCC(=O)c1ccc(OCCCN2CCN(C(=O)[C@@H](N)CC(C)C)CC2)cc1	9.77 µM	0.17 µM	16.6 µM			
CCCCCC(=O)c1ccc(OCCCN2CCN(C(=O)[C@@H](C)N)CC2)cc1	35.5 µM	0.00191 µM	40.7 µM			
CCCCCC(=O)c1ccc(OCCCN2CCN(C(=O)[C@H](NC(=O)OC(C)(C)C)C(C)C)CC2)cc1	3.31 µM	0.0148 µM	13.5 µM			
N[C@H](Cc1ccc(O)cc1)C(=O)N1CCN(CCCOc2ccc(C(=O)C3CC3)cc2)CC1	9.77 µM	0.0302 µM	33.1 µM			
N#CC[C@@H](N)C(=O)N1CCN(CCCOc2ccc(C(=O)C3CC3)cc2)CC1	45.7 µM	0.0288 µM	72.4 µM			
CCCCCC(=O)c1ccc(OCCCN2CCN(C(=O)[C@@H](CO)NC(=O)OC(C)(C)C)CC2)cc1	17 µM	0.0024 µM	22.9 µM			
CNCC(=O)N1CCN(CCCOc2ccc(C(=O)C3CC3)cc2)CC1	100 µM	0.00229 µM	79.4 µM			
CC(C)(C)OC(=O)N1CCC[C@@H]1C(=O)N1CCN(CCCOc2ccc(C(=O)C3CC3)cc2)CC1	46.8 µM	0.12 µM	50.1 µM			
CC(C)N[C@H](C)C(=O)N1CCN(CCCOc2ccc(C(=O)C3CC3)cc2)CC1	46.8 µM	0.00871 µM	50.1 µM			
NCCC(=O)N1CCN(CCCOc2ccc(C(=O)C3CC3)cc2)CC1	28.2 µM	0.000501 µM	100 µM	46%		
N[C@H](Cc1nccs1)C(=O)N1CCN(CCCOc2ccc(C(=O)C3CC3)cc2)CC1	100 µM	0.00575 µM	97.7 µM			
CN[C@H](Cc1ccccc1)C(=O)N1CCN(CCCOc2ccc(C(=O)C3CC3)cc2)CC1	13.5 µM	0.0437 µM	17.8 µM			
CCCCCC(=O)c1ccc(OCCCN2CCN(C(=O)[C@@H](NC(=O)OC(C)(C)C)C(C)C)CC2)cc1	10.7 µM	0.0977 µM	12.6 µM			
N[C@H](Cc1cc2ccccc2s1)C(=O)N1CCN(CCCOc2ccc(C(=O)C3CC3)cc2)CC1	4.37 µM	0.288 µM	15.1 µM			
CC[C@@H](N)C(=O)N1CCN(CCCOc2ccc(C(=O)C3CC3)cc2)CC1 (stereo in doubt; 43)	70.8 µM	0.00158 µM	100 µM			
CC[C@@H](N)C(=O)N1CCN(CCCOc2ccc(C(=O)C3CC3)cc2)CC1 (stereo in doubt; 57)	2.09 µM	0.00195 µM	11 µM			
CCCCCC(=O)c1ccc(OCCCN2CCN(C(=O)[C@H](N)C(C)C)CC2)cc1	16.6 µM	0.017 µM	31.6 µM			
O=C1C[C@H](N2CCN(CCCOc3ccc(C(=O)C4CC4)cc3)CC2)N1	21.9 µM	0.0427 µM	26.9 µM			
CCCCCC(=O)c1ccc(OCCCN2CCN(C(=O)[C@@H](Cc3ccncc3)NC(=O)OC(C)(C)C)CC2)cc1	17 µM	0.0234 µM	12 µM			

Structure (SMILES)	Ki [1]	Ki [2]	Ki [3]	bioavailability [4]	pKb [5]	Kb [6]
N[C@H](Cc1ccsc1)C(=O)N1CCN(CCCOc2ccc(C(=O)C3CC3)cc2)CC1	9.77 µM	0.0229 µM	46.8 µM			
C[C@H](N)C(=O)N1CCN(CCCOc2ccc(C(=O)C3CC3)cc2)CC1	53.7 µM	0.0204 µM	41.7 µM			
CCCCCC(=O)c1ccc(OCCCN2CCN(C(=O)[C@H](N)CO)CC2)cc1	46.8 µM	0.00708 µM	34.7 µM			
CCCCCC(=O)c1ccc(OCCCN2CCN(C(=O)[C@@H](N)Cc3ccncc3)CC2)cc1	2.29 µM	0.0102 µM	34.7 µM			
N[C@H](CC1CCCCC1)C(=O)N1CCN(CCCOc2ccc(C(=O)C3CC3)cc2)CC1	14.5 µM	0.162 µM	20.4 µM			
CCCCCC(=O)c1ccc(OCCCN2CCN(C(=O)[C@@H](CC(C)C)NC(=O)OC(C)(C)C)CC2)cc1	4.68 µM	0.0145 µM	4.47 µM			
C[C@H](CN)C(=O)N1CCN(CCCOc2ccc(C(=O)C3CC3)cc2)CC1	1.74 µM	0.00891 µM	10.7 µM			
O=C(c1ccc(OCCCN2CCN(C(=O)C[C@H]3CCCN3)CC2)cc1)C1CC1	95.5 µM		89.1 µM			
N[C@H](CCc1ccccc1)C(=O)N1CCN(CCCOc2ccc(C(=O)C3CC3)cc2)CC1	10 µM	0.00457 µM	10 µM			
CCCCCC(=O)c1ccc(OCCCN2CCN(C(=O)[C@@H](N)C(C)C)CC2)cc1	19.1 µM	0.0794 µM	38 µM			
CCCCCC(=O)c1ccc(OCCCN2CCN(C(=O)[C@H](N)Cc3ccncc3)CC2)cc1	3.31 µM	0.00912 µM	37.2 µM			
CCC[C@@H](N)C(=O)N1CCN(CCCOc2ccc(C(=O)C3CC3)cc2)CC1	46.8 µM	0.00398 µM	60.3 µM			
N[C@@H](C(=O)N1CCN(CCCOc2ccc(C(=O)C3CC3)cc2)CC1)C1Cc2ccccc2C1	10.7 µM	0.0263 µM	19.1 µM			
C[C@@H](NC(=O)OC(C)(C)C)C(=O)N1CCN(CCCOc2ccc(C(=O)C3CC3)cc2)CC1	8.13 µM		83.2 µM			
C[C@@H](N)C(=O)N1CCN(CCCOc2ccc(C(=O)C3CC3)cc2)CC1	69.2 µM	0.00126 µM	70.8 µM	83%	8.75	0.105 µM
CCCCCC(=O)c1ccc(OCCCN2CCN(C(=O)[C@@H](C)NC(=O)OC(C)(C)C)CC2)cc1	6.76 µM	0.00123 µM	10.7 µM			
N[C@H](Cc1ccc(-c2ccccc2)cc1)C(=O)N1CCN(CCCOc2ccc(C(=O)C3CC3)cc2)CC1	12 µM	0.132 µM	20.4 µM			
O=C(c1ccc(OCCCN2CCN(C(=O)[C@@H]3CCN3)CC2)cc1)C1CC1	10 µM	0.0129 µM	12.3 µM			
O=C(c1ccc(OCCCN2CCN(C(=O)[C@H]3CCCN3)CC2)cc1)C1CC1	37.2 µM	0.0302 µM	53.7 µM			
N[C@H](Cc1c[nH]cn1)C(=O)N1CCN(CCCOc2ccc(C(=O)C3CC3)cc2)CC1	95.5 µM	0.00457 µM	89.1 µM			
N[C@H](Cc1ccc(F)cc1)C(=O)N1CCN(CCCOc2ccc(C(=O)C3CC3)cc2)CC1	9.33 µM	0.0295 µM	39.8 µM			
CC(C)(C)C[C@@H](N)C(=O)N1CCN(CCCOc2ccc(C(=O)C3CC3)cc2)CC1	10.2 µM					
CCCCCC(=O)c1ccc(OCCCN2CCN(C(=O)[C@H](Cc3ccncc3)NC(=O)OC(C)(C)C)CC2)cc1	9.33 µM	0.0537 µM	14.8 µM			
CC(C)(C)[C@@H](N)C(=O)N1CCN(CCCOc2ccc(C(=O)C3CC3)cc2)CC1	21.9 µM	0.0525 µM	19.1 µM			
CC(C)(C)OC(=O)N[C@H](Cc1ccccc1)C(=O)N1CCN(CCCOc2ccc(C(=O)C3CC3)cc2)CC1	5.5 µM	0.00398 µM	10 µM			
CC(C)(C)OC[C@@H](N)C(=O)N1CCN(CCCOc2ccc(C(=O)C3CC3)cc2)CC1	16.2 µM	0.00851 µM	45.7 µM			
CCCCCC(=O)c1ccc(OCCCN2CCN(C(=O)[C@H](N)CC(C)C)CC2)cc1	14.5 µM	0.0617 µM	14.1 µM			
